Article PMC8018465, “Antimicrobial activities of a small molecule compound II-6s against oral streptococci” (Journal of Oral Microbiology, 2021)
In brackets after ≈: the same amount, converted by molar mass. Read-outs that look alike come from different tables or passages of the source.

What was measured:
S. gordonii = test: Bacterial susceptibility assay (microdilution, planktonic); type: cell-based, Streptococcus gordonii DL1; details: Streptococcus gordonii
Procedure: (§1) Streptococcus mutans UA159, Streptococcus gordonii DL1 and Streptococcus sanguinis ATCC10556 were obtained from the State Key Laboratory of Oral Diseases (Sichuan University, Chengdu, China). All strains were routinely cultured in brain heart infusion broth (BHI; Difco, Sparks, MD) under anaerobic conditions (5% CO2) at 37°C. For biofilm formation, bacteria were cultured in BHI broth supplied with 1% sucrose (designated BHIS).
(§2) The minimum inhibitory concentration (MIC) and minimum bactericidal concentration (MBC) of II-6s against S. mutans, S. gordonii, and S. sanguinis were measured by a microdilution method in BHI as described previously. The bacterial inoculum for the experiment was adjusted to 1 × 10^7 colony-forming units (CFU)/ml for S. mutans, S. gordonii, and S. sanguinis based on the optical density at 600 nm (OD600) versus a CFU/ml graph of each bacterium. Bacterial suspension was added to 96-well microtiter plates which were supplemented with serially diluted concentrations of II-6s ranging from 0.98 to 500 μg/ml. Each plate also included CHX ranging from 0.98 to 500 μg/ml as a positive control, test bacteria and BHI broth as a negative control, BHI broth containing equivalent DMSO (0.5% to 0.001%, ν/ν) as a solvent control and a blank control. […] The lowest concentration of the test solutions that allowed no visible growth on a BHI agar plate was taken as MBC. The experiment was performed in triplicates and repeated at least three times.

[1] = tested on: S. mutans/S. gordonii/S. sanguinis 3-species biofilms; test: 3-species biofilm imaging (EPS, dead/live, FISH) and quantitative PCR; type: cell-based
Procedure: To form 3-species biofilms, bacterial suspensions were mixed to obtain an inoculum consisting of S. mutans, S. gordonii, and S. sanguinis (1 × 10^5 CFU/ml for each strain, inoculum ratio = 1:1:1) in BHIS broth as described previously. The inoculum (250 μl) was added into the chemotaxis chamber (μ-slide 8well, 80,826; Ibidi) and incubated for 24 h. After the multispecies biofilms were formed, they were treated with different concentrations of II-6s, CHX and PBS for 5 days (5 min, three times per day).
For EPS staining, 2.5 μM Alexa Fluor 647-labeled dextran conjugate (Molecular Probes) was added to the culture medium from the beginning of the biofilm formation, and the bacteria were stained with 2.5 μM SYTO 9 (Molecular Probes, Invitrogen) for 15 min after biofilms formed. The biofilms were imaged with a DMIRE2 confocal laser scanning microscope (Leica, Wetzlar, Germany) equipped with a 60 × oil immersion lens.
For dead/live imaging, multispecies biofilms were stained with the Live/Dead BacLight Bacterial Viability Kit (Molecular Probes, Invitrogen), and the reagents were applied to the biofilms at final concentrations of 2.5 μM SYTO 9 and 2.5 μM propidium iodide for 15 min. Live/Dead staining is a measure of membrane damage since SYTO 9 penetrates intact cytoplasmic membranes, while propidium iodide is only able to penetrate damaged membranes. The dyed biofilms were imaged with a Leica DMIRE2 confocal laser scanning microscope as in EPS staining.
For fluorescent in situ hybridization imaging, biofilms were fixed in 4% paraformaldehyde overnight and investigated by species-specific probes (Table S1) as described previously [[30–32]]. In brief, prehybridization (15 min, 46°C) was performed in 250 μl hybridization buffer with 20% formamide in the absence of any oligonucleotide probes. The incubation time for the hybridization was almost 90 min at 46°C in the dark. After the incubation, biofilms were transferred into washing buffer preheated to 48°C and incubated for 15 min at this temperature. After staining, the biofilms were imaged with a Leica DMIRE2 confocal laser scanning microscope as in EPS staining.
Each biofilm was scanned at five randomly selected positions and the experiments were performed in triplicates on three independent occasions. All three-dimensional reconstructions of the biofilms were processed with Imaris, version 7.2.3 (Bitplane, Zürich, Switzerland), and the quantification of fluorescence levels was performed with ImageJ (with the plugin COMSTAT) (National Institutes of Health, Bethesda, MD).
Total DNA of biofilms was isolated and purified using a TIANamp Bacteria DNA kit (Tiangen, Beijing, China). The bacteria were lysed using enzymatic lysis buffer (20 mM Tris-HCl, pH 8.0, 2 mM sodium EDTA, and 1.2% Triton X-100) containing 25 mg/ml of lysozyme at 37°C for 1.5 h. The purity and concentration of DNA were determined by a NanoDrop 2000 spectrophotometer (Thermo Scientific, Waltham, MA, USA). The extracts were placed at −20°C before use. TaqMan real-time PCR (Life Technologies, Carlsbad, CA, USA) was applied to quantify the absolute number of S. mutans, S. gordonii and S. sanguinis as described by the manufacturer (TaKaRa, Dalian, China). The sequences of primers (Table S2) were in accordance with previous studies. The standard curves of these bacteria were plotted using cycle values of DNA, which stands for corresponding concentrations of bacteria from 1 × 10^8 CFU/ml to 1 × 10^4 CFU/ml (Figure S1). The number of each strain within 3-species biofilms was calculated based on standard curves. The experiment was conducted in triplicates and repeated three times.

S. sanguinis = test: Bacterial susceptibility assay (microdilution, planktonic); type: cell-based, Streptococcus sanguinis ATCC10556; details: Streptococcus sanguinis, BHI medium
Procedure: as §1, §2

[2] = S. gordonii, planktonic, BHI medium
[3] = 5 days, 5 min three times per day

Row | Compound | MBC (S. gordonii; [2]) | MIC (S. gordonii; S. gordonii, planktonic, BHI medium, read-out: MIC) | EPS/bacteria ratio of the biofilms [1, 3] | MBC (S. sanguinis) | MIC (S. sanguinis) | MIC (S. gordonii) | microbial composition within 3-species biofilms (FISH, quantitative PCR) [1, 3] | dead/live bacteria ratio of biofilm ([1]; II-6s 125 μg/ml, vs 0.2% of CHX) | dead/live bacteria ratio of biofilms ([1]; II-6s 31.25 to 125 μg/ml, vs non-treated control) | reduction of bacterial biomass and EPS production ([1]; II-6s 31.25 to 125 μg/ml, 5 days, 5 min three times per day)
1 | [H]/N=C(\N/C(=N/[H])NCCCCCCNC(=N)NC(=N)Nc1ccc(Cl)cc1)Nc1ccc(Cl)cc1 [CHX, Chlorhexidine digluconate, reference compound] | 7.81 µg/mL | 3.91 µg/mL | neither II-6s nor CHX treatment altered the EPS/bacteria ratio | 3.91 µg/mL | 0.49 µg/mL |  |  |  |  | 
2 | CC(C)(Cc1ccc2ccccc2c1)NC[C@H](O)CNc1cc(C(F)(F)F)cc(C(F)(F)F)c1 [II-6s, (S)-1-((3,5-bis(trifluoromethyl)phenyl)amino)-3-((2-methyl-1-(naphthalen-2-yl)propan-2-yl)amino)propan-2-ol] | 15.6 µg/mL (≈ 32.3 µM) |  | neither II-6s nor CHX treatment altered the EPS/bacteria ratio | 7.81 µg/mL (≈ 16.1 µM) | 1.95 µg/mL (≈ 4.02 µM) | 3.91 µg/mL (≈ 8.07 µM) | effectively reduced the total biomass of streptococci but did not specifically reduce the cariogenic S. mutans | even higher than that treated with 0.2% of CHX | significantly higher than that of the non-treated control | equivalent ability to reduce bacterial biomass and EPS production as compared to 0.2% of CHX
